pIC50: −log10 of the molar value. Where “and” joins values, the source holds several entries; their conditions need not be identical. Equal values may be shown once.
Columns and labels:
[1] = Stability in microsomes, monkey; format: in vitro ADME; details: monkey microsomes, with cofactors, 60 min
Method: The final incubation volume was 500 μL. Two control compounds (verapamil and donepezil) were included for each microsomal species, along with the appropriate vehicle control. The reactions were terminated by transferring 50 μL of incubate to 100 μL methanol containing an internal standard (metoprolol) at appropriate time points (0, 10, 20, 40, 60, and 120 min for the test compound and 0, 5, 10, 20, 40, and 60 min for the control compounds). The termination plates were centrifuged at 4000 x g at 4°C for 30 min to precipitate the protein. The supernatants were then collected for analysis, and LC-MS/MS was used for detection purposes. The system consisted of an Acquity™ Binary Solvent Manager, Acquity™ 4-position heated column manager, 2777 Ultra High Pressure Autosampler, and a Xevo-TQ MS triple quadrupole mass spectrometer (Waters Ltd., Herts, UK). This process was carried out twice.

HepG2 cells = assay: Respiration in hepatocytes (Seahorse XF Mito stress test); format: cell-based, human; details: for oxygen consumption rate, mito stress tracing: Fig2 A; for ECAR (Extracellular Acidification Rate) / OCR (Basal Oxygen Consumption rate): replicates
OATP1B3 = biological target: T1, OATP1B3 (Homo sapiens, UniProt Q9NPD5); assay: Uptake transporter inhibition assay, OATP1B3; details: human, transformed HEK cells expressing OATP1B3, pH 7.4
T1 sequence (Q9NPD5 1-702): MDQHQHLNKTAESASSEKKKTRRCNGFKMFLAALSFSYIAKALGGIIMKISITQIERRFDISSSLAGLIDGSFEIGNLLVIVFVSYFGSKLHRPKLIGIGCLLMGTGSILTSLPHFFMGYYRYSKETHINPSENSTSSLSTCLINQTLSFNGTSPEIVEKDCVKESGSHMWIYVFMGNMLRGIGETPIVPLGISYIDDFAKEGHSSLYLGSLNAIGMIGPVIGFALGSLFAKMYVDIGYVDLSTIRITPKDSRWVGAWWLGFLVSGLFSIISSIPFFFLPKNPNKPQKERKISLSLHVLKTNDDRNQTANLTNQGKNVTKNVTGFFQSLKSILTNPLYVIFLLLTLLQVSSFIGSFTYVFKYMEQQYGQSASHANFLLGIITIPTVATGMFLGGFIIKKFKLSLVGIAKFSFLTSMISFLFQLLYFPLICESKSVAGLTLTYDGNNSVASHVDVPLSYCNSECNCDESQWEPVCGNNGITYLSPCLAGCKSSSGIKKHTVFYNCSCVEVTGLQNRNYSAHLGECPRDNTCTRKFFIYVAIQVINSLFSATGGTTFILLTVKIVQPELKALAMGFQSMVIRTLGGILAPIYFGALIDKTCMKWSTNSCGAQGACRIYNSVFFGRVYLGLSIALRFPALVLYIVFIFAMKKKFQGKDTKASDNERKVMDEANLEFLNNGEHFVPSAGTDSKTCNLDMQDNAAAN
Method: For the uptake transporter inhibition assay, cells were washed twice with 100 μL of the appropriate buffer (HK, pH 7.4) for OATP1B1, followed by HBSS (pH 7.4) for (NTCP, OAT1, OAT2v1, OATP1A2, and OATP1B3). Uptake experiments were carried out at 37 ± 1°C in 50 μL of the respective buffer containing the probe substrate and the compound or solvent. […] After the experiment, cells were washed twice with 100 μL of cold appropriate buffer and lysed with 50 μL of 0.1 M NaOH. Radiolabeled probe substrate transport was determined by measuring an aliquot (35 μL) from each well for liquid scintillation counting.

CC#C[C@@H](CC(=O)O)c1ccc(OCC(C)=C(C)C)cc1 [CPL207280]
average DEG [%] [1]: 16.3%
oxygen consumption rate, mito stress tracing (HepG2 cells; HepG2, 0.3 uM, 34.6705 min): 80.249 and 97.2155 and 86.8514
oxygen consumption rate, mito stress tracing (HepG2 cells; HepG2, 0.3 uM, 41.3548 min): 35.437 and 46.6744 and 43.9128
oxygen consumption rate, mito stress tracing (HepG2 cells; HepG2, 0.3 uM, 47.9665 min): 35.8498 and 44.0725 and 43.5554
oxygen consumption rate, mito stress tracing (HepG2 cells; HepG2, 0.3 uM, 54.5812 min): 34.6812 and 46.6208 and 43.7024
oxygen consumption rate, mito stress tracing (HepG2 cells; HepG2, 0.3 uM, 61.2916 min): 130.123 and 163.716 and 142.011
oxygen consumption rate, mito stress tracing (HepG2 cells; HepG2, 0.3 uM, 67.9128 min): 106.485 and 133.91 and 115.698
oxygen consumption rate, mito stress tracing (HepG2 cells; HepG2, 0.3 uM, 74.5347 min): 96.5173
oxygen consumption rate, mito stress tracing (HepG2 cells; HepG2, 1 uM, 34.6705 min): 100.011 and 78.8082 and 81.9508
oxygen consumption rate, mito stress tracing (HepG2 cells; HepG2, 1 uM, 41.3548 min): 47.2411 and 41.158 and 37.0741
oxygen consumption rate, mito stress tracing (HepG2 cells; HepG2, 1 uM, 47.9665 min): 46.2402 and 40.9403 and 37.3629
oxygen consumption rate, mito stress tracing (HepG2 cells; HepG2, 1 uM, 54.5812 min): 47.0103 and 40.8472 and 36.7203
oxygen consumption rate, mito stress tracing (HepG2 cells; HepG2, 1 uM, 61.2916 min): 170.96 and 125.782 and 138.858
oxygen consumption rate, mito stress tracing (HepG2 cells; HepG2, 1 uM, 67.9128 min): 139.39 and 102.287 and 110.384
oxygen consumption rate, mito stress tracing (HepG2 cells; HepG2, 1 uM, 74.5347 min): 123.934 and 92.2309 and 99.0802
oxygen consumption rate, mito stress tracing (HepG2 cells; HepG2, 10 uM, 34.6705 min): 110.191 and 84.6025 and 86.6099
oxygen consumption rate, mito stress tracing (HepG2 cells; HepG2, 10 uM, 41.3548 min): 53.0343 and 43.3081 and 40.0605
oxygen consumption rate, mito stress tracing (HepG2 cells; HepG2, 10 uM, 47.9665 min): 52.304 and 44.0598 and 40.3019
oxygen consumption rate, mito stress tracing (HepG2 cells; HepG2, 10 uM, 54.5812 min): 53.3375 and 43.9407 and 40.3833
oxygen consumption rate, mito stress tracing (HepG2 cells; HepG2, 10 uM, 61.2916 min): 205.106 and 144.168 and 145.662
oxygen consumption rate, mito stress tracing (HepG2 cells; HepG2, 10 uM, 67.9128 min): 156.881 and 114.329 and 108.157
oxygen consumption rate, mito stress tracing (HepG2 cells; HepG2, 10 uM, 74.5347 min): 137.02 and 102.413 and 95.1094
oxygen consumption rate, mito stress tracing (HepG2 cells; HepG2, 30 uM, 34.6705 min): 92.7755 and 86.7994 and 98.474
oxygen consumption rate, mito stress tracing (HepG2 cells; HepG2, 30 uM, 41.3548 min): 47.1023 and 44.4378 and 48.0839
oxygen consumption rate, mito stress tracing (HepG2 cells; HepG2, 30 uM, 47.9665 min): 46.5085 and 44.5297 and 49.242
oxygen consumption rate, mito stress tracing (HepG2 cells; HepG2, 30 uM, 54.5812 min): 47.3133 and 45.4103 and 49.1801
oxygen consumption rate, mito stress tracing (HepG2 cells; HepG2, 30 uM, 61.2916 min): 166.246 and 150.833 and 168.619
oxygen consumption rate, mito stress tracing (HepG2 cells; HepG2, 30 uM, 67.9128 min): 122.701 and 115.579 and 125.99
oxygen consumption rate, mito stress tracing (HepG2 cells; HepG2, 30 uM, 74.5347 min): 107.636 and 100.89 and 113.574
oxygen consumption rate, mito stress tracing (HepG2 cells; HepG2, 100 uM, 34.6705 min): 67.4412 and 69.6068 and 55.4444
oxygen consumption rate, mito stress tracing (HepG2 cells; HepG2, 100 uM, 41.3548 min): 37.8597 and 39.5148 and 33.1927
oxygen consumption rate, mito stress tracing (HepG2 cells; HepG2, 100 uM, 47.9665 min): 37.9692 and 40.1535 and 34.8525
oxygen consumption rate, mito stress tracing (HepG2 cells; HepG2, 100 uM, 54.5812 min): 38.5804 and 40.5605 and 35.0114
oxygen consumption rate, mito stress tracing (HepG2 cells; HepG2, 100 uM, 61.2916 min): 98.1667 and 106.839 and 80.4832
oxygen consumption rate, mito stress tracing (HepG2 cells; HepG2, 100 uM, 67.9128 min): 74.25 and 83.2846 and 59.4526
ECAR (Extracellular Acidification Rate) (HepG2 cells; HepG2, 0.3 uM): 0.9978 and 0.9743 and 0.8743
OCR (Basal Oxygen Consumption rate) (HepG2 cells; HepG2, 0.3 uM): 0.9555 and 0.9023 and 1.068
ECAR (Extracellular Acidification Rate) (HepG2 cells; HepG2, 1 uM): 0.9613 and 0.9697 and 0.955
OCR (Basal Oxygen Consumption rate) (HepG2 cells; HepG2, 1 uM): 0.9695 and 0.8683 and 1.043
ECAR (Extracellular Acidification Rate) (HepG2 cells; HepG2, 10 uM): 1.014 and 1.053 and 0.9962
OCR (Basal Oxygen Consumption rate) (HepG2 cells; HepG2, 10 uM): 1.0176 and 0.8931 and 1.143
ECAR (Extracellular Acidification Rate) (HepG2 cells; HepG2, 30 uM): 0.995 and 1.079 and 1.004
OCR (Basal Oxygen Consumption rate) (HepG2 cells; HepG2, 30 uM): 1.014 and 0.9586 and 1.1505
ECAR (Extracellular Acidification Rate) (HepG2 cells; HepG2, 100 uM): 1.11 and 1.113 and 1.179
OCR (Basal Oxygen Consumption rate) (HepG2 cells; HepG2, 100 uM): 1.005 and 0.9369 and 1.04
EC50 of acidification of media (ECAR) (HepG2 cells; HepG2, Seahorse XF): absent
effect on ATP synthesis (HepG2 cells; HepG2, Seahorse XF): did not alter ATP synthesis
effect on oxygen consumption rate / basal respiration (HepG2 cells; HepG2, Seahorse XF): reduced basal and maximal respiration at the highest concentration of 100 μM
effect on respiration (HepG2 cells; hepatocytes, Seahorse XF, 100 μM): slight respiration inhibition
pIC50 (OATP1B3): 4.37
